Results from article PMC9026428, “New Peptide Based Fluconazole Conjugates with Expanded Molecular Targets” (Pharmaceutics, 2022).
Converted amounts (≈) assume the structure as drawn. Read-outs that look alike come from different tables or passages of the source. Non-standard residues stand in square brackets, D forms with d. Residues, ends and D or L forms follow the SMILES beside them. *: point of attachment. X1 = O=C(CCCC(=O)*)OC(Cn1cncn1)(Cn1cncn1)c1ccc(F)cc1F; Nle = CCCC[C@H](N)C(=O)O

How the values were obtained:
[1] = tested on: Candida albicans 604; assay: microbe, parasite or virus in culture; conditions: 37 °C; for MIC50 / MIC90: C. albicans 604 (fluconazole-resistant clinical isolate), RPMI 1640/MOPS pH 7.0, 24 h, triplicate; for MIC50: at least 50% growth inhibition vs growth control; for MIC90: lowest concentration with no visible growth
How it was run: (§1)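 Values come from modified CLSI M27-A3 broth microdilution at 37 °C for 24 h. Medium was RPMI 1640 with L-glutamine, no bicarbonate, buffered with 0.165 M MOPS to pH 7.0. Final DMSO was about 1%.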

[2] = tested on: Candida glabrata DSM 6128; assay: microbe, parasite or virus in culture; conditions: C. glabrata DSM 6128, RPMI 1640/MOPS pH 7.0, 24 h, 37 °C, triplicate; for MIC50: at least 50% growth inhibition vs growth control; for MIC90: lowest concentration with no visible growth
How it was run: as §1

[3] = MTT cytotoxicity assay; conditions: human
Protocol: (§2) The assessment of antifungal potential of synthesized agents was carried out using four reference strains (C. albicans ATCC 10231, C. albicans SC5314, C. glabrata DSM […] and C. krusei DSM […]) and six clinical isolates of fluconazole-resistant C. albicans that were provided by the Hospital of Medical University of Gdansk, Poland. Moreover, four C. albicans isolates, assigned as B3, B4, Gu4 and Gu5, were used for investigation whether the synthesized fluconazole derivatives were effectively removed from the yeast cells by the drug efflux transporters, as in the case of fluconazole. These strains were kindly provided by Prof. Joachim Morschhäuser from University of Würzburg (Würzburg, Germany). Strains Gu4 and B3 were fluconazole-sensitive isolates obtained from early infection episodes, while Gu5 and B4 were the corresponding fluconazole-resistant isolates obtained from later episodes in the same patients treated with fluconazole. The lack of susceptibility of the Gu5 strain to fluconazole was a consequence of overexpression of CDR1/2 genes encoding ABC transporters, whereas the resistance of B4 strain was caused by overexpression of the MDR1 gene encoding a membrane transport protein of the major facilitator superfamily (MFS). All of these Candida spp. strains were maintained on YPD agar plates (1% (w/v) yeast extract, 2% (w/v) peptone, 2% (w/v) glucose, 2% (w/v) agar) at 30 °C for 16–24 h. For all of the assays aimed at assessing the antifungal potential of the synthesized agents, the yeasts were cultivated at 37 °C in RPMI 1640 medium (with L-glutamine, without sodium bicarbonate, Sigma-Aldrich, Darmstadt, Germany)) buffered to a pH of 7.0 with 0.165 M morpholinepropanesulfonic acid (MOPS) buffer (Sigma-Aldrich). In this study, we used the human foreskin fibroblast cell line Hs27 (ATCC CRL 1634TM) and the human endothelial cell line HUVEC (C2519A), purchased from Lonza Group AG, (Basel, Switzerland). The Hs27 cells were maintained in cell media consisting of Dulbecco’s modified Eagles medium (DMEM), (Corning, Arizona, USA) with 10% fetal bovine serum (FBS), (Corning, Port Elizabeth, South Africa), 1% penicillin/streptomycin (Sigma-Aldrich Inc., Darmstadt, Germany), and 1% L-glutamine (Corning, Arizona, USA). The human endothelial cell line was maintained in cell media consisting of Endothelial Cell Growth Medium-2 Single Quots Kit (Lonza, USA). Both cell lines were cultured in an incubator at 37 °C and 5% CO2.
(§3) Hs27 and HUVEC mammalian cell lines were cultured as mentioned above. Once cell lines were about 80% confluent, cells were counted by a hemacytometer (Hausser Scientific, Horsham, PA, USA) and plated in 96-well microtiter plates at concentrations of 4500 cells per well for Hs27 and 2000 cells per well for HUVEC. Cells were allowed to attach overnight. […] The final concentration of DMSO was ensured to be around 1% in all experiments. Cells were incubated with studied compounds for 72 h at 37 °C and 5% CO2. After incubation, 20 µL of MTT solution in PBS (4 mg/mL) was added to all wells and incubated further for 3 h at 37 °C. Formed formazan crystals were dissolved in 150 µL DMSO, and absorbance was measured using an Asys UVM340 multi-well plate reader at λ = 540 nm. Cytotoxicity was determined compared to drug-free control. All experiments were performed in biological triplicates.

[4] = tested on: Hs27 cells (human foreskin fibroblast cell line); assay: MTT cytotoxicity assay
Protocol: as §2, §3

[5] = MTT cytotoxicity assay; conditions: human; remark: listed apart in the source
Protocol: as §2, §3

[6] = tested on: HUVEC cells (human umbilical venous endothelial primary cells); assay: MTT cytotoxicity assay
Protocol: as §2, §3

[7] = tested on: Candida spp. strains tested; assay: Antifungal activity against the whole panel of strains tested; type: cell-based; conditions: panel of Table 2, 8–250 µM
Protocol: Antifungal activity of the tested compounds against yeast cells was determined in 96-well plates as described in the CLSI document M27-A3 [39], with minor modifications (CLSI, 2008). Suspensions of the microorganisms were prepared by taking one loop of pure culture into sterile water and adjusting optical density to 0.1 at 660 nm wavelength and further 50-fold dilution in RPMI 1640 medium, resulting in cell concentration of approximately 2 × 10^4 CFU/mL [21]. Then, 100 μL of cells were added to the wells of a 96-well microtiter plate that contained 16–500 μM tested compounds and 16–500 μM of FLC or 0.2–62 μM AmB. The plates were incubated for 24 h at 37 °C. Each test was performed in triplicate. […] The MIC90 was defined as the lowest concentration of drug showing no visible growth; MIC50 was defined as the concentration that yielded at least 50% growth inhibition when compared with the growth control well.

[8] = tested on: C. albicans SC5314; assay: Membrane permeabilization assay by propidium iodide uptake (flow cytometry, fluorescence microscopy); type: cell-based, Candida albicans
Protocol: Suspensions of C. albicans SC5314 were prepared by taking one loop of pure culture growth from 24 h YPD agar plates into RPMI 1640 medium and adjusting optical density to 0.1 at 660 nm wavelength. […] The cell suspensions were then treated for 0.5, 2, 4, 6, and 24 h at 37 °C with continuous agitation (180 rpm). The cells were then centrifuged and resuspended in 200 µL of PBS buffer (pH 7.4). Subsequently, cells were treated with propidium iodide (1 mg/mL, final concentration) and incubated for 30 min at room temperature in the dark. Cellular fluorescence was visualized using lens 20×, using Olympus Fluorescence Microscope BX60 (Olympus, Tokyo, Japan). The images were also post-processed utilizing cell Sens program. The fluorescence intensity emitted by DNA-bound propidium iodide was measured using a flow cytometer (Merck Millipore guava easyCyte 8, Darmstadt, Germany). Data were obtained from at least two independent experiments.

[9] = tested on: C. albicans SC5314; conditions: C. albicans SC5314, 1 × MFC, time-kill over 24 h, RPMI 1640, 37 °C
Protocol: Antifungal time-kill studies were carried out by a method previously described and evaluated by Klepser et al. [40]. A starting inoculum was prepared by inoculating a tube of sterile water with growth from 24 h YPD agar plates (C. albicans SC5314), and OD660 was adjusted to about 0.1 (around 10^6 cells per 1 mL). […] A negative control (growth medium without drug or organism) was also included at each time of testing. Tubes were incubated at 37 °C on an orbital shaker and vortexed before removing a sample for the determination of colony counts. After the appropriate time of incubation (0.5, 2, 4, 6, and 24 h), 1 mL of each suspension was centrifuged (2 min, 9170× g), and the pellet was re-suspended in 1 mL of PBS pH 7.4. Ten-fold serial dilutions with PBS were prepared, and 100 μL of each was inoculated on YPD agar plates in duplicate. Plates were incubated for 24 h at 37 °C. Colony forming units in the range of 30–300 were counted (on the plates containing from 30 to 300 colonies) and the number of yeast cells in 1 mL (CFU/mL) was calculated [21].

[10] = Hs27 cells, MTT, 72 h, 37 °C, 100–1.5 μM, biological triplicates
[11] = HUVEC cells, MTT, 72 h, 37 °C, 100–1.5 μM, biological triplicates

Structure (SMILES) | MIC50 [1] [µM] | MIC90 [1] [µM] | MIC50 [2] [µM] | MIC90 [2] [µM] | IC50 at 72 h [3] [µM] | In vitro cytotoxicity IC90 ± SEM [4, 10] [µM] | IC50 at 72 h [5] [µM] | In vitro cytotoxicity IC90 ± SEM [6, 11] [µM] | antifungal activity against the strains tested, in words [7] | MFC ([1]; C. albicans 604, aliquots plated on YPD agar, 24 h, lowest concentration with no colony growth) [µM] | cell membrane disruption (PI uptake), in words [8] | reduction in yeast cell count [9] [log10] | IC50 [4] [µM] | In vitro cytotoxicity IC90 ± SEM [4] [µM] | IC50 [6] [µM] | In vitro cytotoxicity IC90 ± SEM [6] [µM]
CCCC[C@H](NC(=O)CCCC(=O)OC(Cn1cncn1)(Cn1cncn1)c1ccc(F)cc1F)C(=O)N[C@@H](Cc1ccccc1)C(=O)N[C@@H](CCCCN)C(=O)N[C@@H](CS)C(=O)N[C@@H](CCCNC(=N)N)C(=O)N[C@@H](CCCNC(=N)N)C(=O)N[C@@H](Cc1c[nH]c2ccccc12)C(=O)N[C@@H](CCC(N)=O)C(=O)N[C@@H](Cc1c[nH]c2ccccc12)C(=O)N[C@@H](CCCNC(=N)N)C(=O)N[C@@H](CCCC)C(=O)N[C@@H](CCCCN)C(=O)N[C@@H](CCCCN)C(=O)N[C@@H](CC(C)C)C(=O)NCC(N)=O [FLCpOH-LFacinB[Nle^1,11]-NH2] (X1-[Nle]FKCRRWQWR[Nle]KKLG-NH2) | 45 (≈ 109 µg/mL) | 90 (≈ 218 µg/mL) | 250 (≈ 605 µg/mL) | >250 | > 100 | >100 | 75.6 ± 1.73 | >100 | moderately or poorly active | – | – | – | – | – | – | –
CC[C@H](C)[C@H](NC(=O)[C@H](CCCCN)NC(=O)[C@H](CCCCN)NC(=O)[C@H](C)NC(=O)[C@H](CC(C)C)NC(=O)[C@H](C)NC(=O)[C@H](C)NC(=O)[C@H](CC(C)C)NC(=O)[C@H](C)NC(=O)[C@H](CCCCN)NC(=O)[C@H](CC(C)C)NC(=O)[C@H](CC(N)=O)NC(=O)[C@@H](NC(=O)[C@H](CCCCN)NC(=O)CNC(=O)[C@H](CC(C)C)NC(=O)[C@H](CC(C)C)NC(=O)[C@H](Cc1ccc(O)cc1)NC(=O)CNC(=O)[C@H](C)NC(=O)CCCC(=O)OC(Cn1cncn1)(Cn1cncn1)c1ccc(F)cc1F)[C@@H](C)CC)C(=O)N[C@@H](CC(C)C)C(N)=O [FLCpOH-TP10-NH2] | 45 (≈ 116 µg/mL) | 62 (≈ 160 µg/mL) | 62 (≈ 160 µg/mL) | 125 (≈ 323 µg/mL) | – | 28.81 ± 0.87 | – | 34.30 ± 1.00 | – | 250 (≈ 646 µg/mL) | significant cell membrane damage | 1 | – | – | – | –
CSCC[C@H](NC(=O)[C@H](C)NC(=O)[C@H](CCCNC(=N)N)NC(=O)[C@H](CCCCN)NC(=O)[C@H](Cc1c[nH]c2ccccc12)NC(=O)[C@H](CCC(N)=O)NC(=O)[C@H](Cc1ccccc1)NC(=O)[C@H](CS)NC(=O)CCCC(=O)OC(Cn1cncn1)(Cn1cncn1)c1ccc(F)cc1F)C(=O)N[C@@H](CCCNC(=N)N)C(=O)N[C@@H](CCCCN)C(=O)N[C@H](C(=O)N[C@@H](CCCNC(=N)N)C(N)=O)C(C)C [FLCpOH-HLopt2-NH2] (X1-CFQWKRAMRKVR-NH2) | >250 | >250 | >250 | >250 | > 100 | >100 | > 100 | >100 | moderately or poorly active | – | – | – | – | – | – | –
CSCC[C@H](NC(=O)[C@H](CCCNC(=N)N)NC(=O)[C@H](Cc1c[nH]c2ccccc12)NC(=O)[C@H](CCC(N)=O)NC(=O)[C@H](Cc1c[nH]c2ccccc12)NC(=O)[C@H](CCCNC(=N)N)NC(=O)[C@H](CCCNC(=N)N)NC(=O)[C@H](CS)NC(=O)[C@H](CCCCN)NC(=O)[C@H](Cc1ccccc1)NC(=O)CCCC(=O)OC(Cn1cncn1)(Cn1cncn1)c1ccc(F)cc1F)C(N)=O [FLCpOH-LFacinB(2-11)-NH2] (X1-FKCRRWQWRM-NH2) | 190 (≈ 361 µg/mL) | 250 (≈ 475 µg/mL) | >250 | >250 | > 100 | >100 | > 100 | >100 | moderately or poorly active | – | – | – | – | – | – | –
O=C(O)CCCC(=O)OC(Cn1cncn1)(Cn1cncn1)c1ccc(F)cc1F [FLCpOH] | >250 | >250 | >250 | >250 | – | – | – | – | did not exert any antifungal activity | – | – | – | > 100 | >100 | > 100 | >100
